Data published in patent US9290427B2, “Anti-invasive compounds” (Universiteit Gent, priority 2012, dated 2016).

How the values were obtained:
[1] = test system: MCF-7/6 mammary carcinoma cells; parameters: unit not given here; settings: training set compounds 1-34, Indo-Belgian screening program; class = log cmin, lowest concentration with invasion grade I or II; cited from earlier work

COc1cccc(/C=C/C(=O)c2cc3c(cc2O)OC(C)(C)C(O)C3)c1OC (stereo not shown) [Compound 9, (2E)-1-(3,7-Dihydroxy-2,2-dimethylchroman-6-yl)-3-(2,3-dimethoxy-phenyl)propenone]
Actual class [1]: 1 (about 10)

COc1ccc(/C=C/C(=O)c2ccc3c(c2)OCO3)c(OC)c1 [Compound 22, (2E)-1-Benzo[1,3]dioxol-5-yl-3-(2,4-dimethoxyphenyl)propenone]
Actual class [1]: 2 (about 100)

COc1cccc(/C=C/C(=O)c2ccc3c(c2)OCO3)c1OC [Compound 26, (2E)-1-Benzo[1,3]dioxol-5-yl-3-(2,3-dimethoxyphenyl)propenone]
Actual class [1]: 1 (about 10)

COc1cc(OC)c(C(=O)/C=C/c2ccc([N+](=O)[O-])cc2)cc1CC=C(C)C [Compound 10, (2E)-3-(4-nitrophenyl)-1-(2′,4′-dimethoxy-5′-(3-methylbut-2-enyl)phenyl)propenone]
Actual class [1]: 3 (>100)

COc1ccc(C(=O)/C=C/c2ccc([N+](=O)[O-])cc2)cc1OC [Compound 20, (2E)-3-(4-nitrophenyl)-1-(3′,4′-dimethoxyphenyl)propenone]
Actual class [1]: 3 (>100)

CC(C)c1ccc(/C=C/C(=O)c2c(O)c3c(c4c2OC(C)(C)CC4)OC(C)(C)CC3)cc1 [Compound 8, (2E)-1-(5-Hydroxy-2,2,8,8-tetramethyl-3,4,9,10-tetrahydro-2H,8H-pyrano[2,3-f]chromen-6-yl)-3-(4-isopropylphenyl)propenone]
Actual class [1]: 3 (>100)

COc1ccc(/C=C/C(=O)c2cc3c(cc2OC)OC(C)(C)C(O)C3)c(OC)c1 (stereo not shown) [Compound 29, (2E)-3-(2,4-Dimethoxyphenyl)-1-(3-hydroxy-7-methoxy-2,2-dimethylchroman-6-yl)-propenone]
Actual class [1]: 3 (>100)

COc1ccc(/C=C/C(=O)c2c(O)c3c(c4c2OC(C)(C)CC4)OC(C)(C)CC3)cc1OCc1ccccc1 [Compound 7, (2E)-3-(3-Benzyloxy-4-methoxy-phenyl)-1-(5-hydroxy-2,2,8,8-tetramethyl-3,4,9,10-tetrahydro-2H,8H-pyrano[2,3-f]chromen-6-yl)propenone]
Actual class [1]: 3 (>100)

CCOc1ccc(/C=C/C(=O)c2cc(C(c3ccccc3)c3ccccc3)c(OC)cc2O)cc1 [Compound 2, (2E)-1-(5-Benzhydryl-2-hydroxy-4-methoxyphenyl)-3-(4-ethoxyphenyl)propenone]
Actual class [1]: 3 (>100)

COc1cc(/C=C/C(=O)c2ccc(OCc3ccccc3)c(OCc3ccccc3)c2)ccc1OCc1ccccc1 [Compound 13, (2E)-3-(4-Benzyloxy-3-methoxyphenyl)-1-(3,4-bis-benzyloxyphenyl)propenone]
Actual class [1]: 1 (about 10)

COc1cc(OC)c(C(=O)/C=C/c2ccc(C(C)C)cc2)cc1CC=C(C)C [Compound 14, (2E)-3-(4-(1-methylethyl)phenyl)-1-(2′,4′-dimethoxy-5′-(3-methylbut-2-enyl)phenyl)propenone]
Actual class [1]: 1 (about 10)

COc1cc(OC)c(C(=O)/C=C/c2ccccc2)c2c1CC(O)C(C)(C)O2 (stereo not shown) [Compound 24, (2E)-1-(3-Hydroxy-5,7-dimethoxy-2,2-dimethylchroman-8-yl)-3-phenylpropenone]
Actual class [1]: 0 (about 1)

COc1cc(O)c(CC=C(C)C)c(O)c1C(=O)/C=C/c1ccc(O)cc1 [Compound 27, (2E)-3-(4-hydroxyphenyl)-1-(2′,4′-dihydroxy-6′-methoxy-3′-(3-methylbut-2-enyl)phenyl)propenone]
Actual class [1]: 0 (about 1)

Fc1ccc(/C=C/c2ccc(F)cc2)cc1 [Compound 90, (E)-4,4′-Difluorostilbene]
melting point: 116 to 117 °C

COc1ccc(C(=O)/C=C/c2ccc(C(C)C)cc2)cc1OC [Compound 31, (2E)-3-(4-(1-methylethyl)phenyl)-1-(3′,4′-dimethoxyphenyl)propenone]
Actual class [1]: 3 (>100)

COc1cccc(/C=C/c2ccc(Cl)cc2)c1 [Compound 99, (E)-4′-Chloro-3-methoxystilbene]
melting point: 71 to 72 °C

Fc1ccc(/C=C/c2cccc(F)c2)cc1 [Compound 98, (E)-3,4′-Difluorostilbene]
melting point: 92 to 93 °C

COc1ccc(/C=C/C(=O)c2cc3c(cc2O)OC(C)(C)C(O)C3)c(OC)c1 (stereo not shown) [Compound 12, (2E)-1-(3,7-Dihydroxy-2,2-dimethylchroman-6-yl)-3-(2,4-dimethoxy-phenyl)propenone]
Actual class [1]: 1 (about 10)

COc1ccc(/C=C/C(=O)c2cc3c(cc2O)OC(C)(C)CC3)cc1OC [Compound 23, (2E)-3-(3,4-Dimethoxyphenyl)-1-(7-hydroxy-2,2-dimethylchroman-6-yl)propenone]
Actual class [1]: 2 (about 100)

COc1cc(OC)c(C(=O)/C=C/c2ccccc2)cc1CC=C(C)C [Compound 18, (2E)-3-phenyl-1-(2′,4′-dimethoxy-5′-(3-methylbut-2-enyl)phenyl)propenone]
Actual class [1]: 0 (about 1)

Cc1ccc(/C=C/C(=O)c2c(O)c3c(c4c2OC(C)(C)CC4)OC(C)(C)CC3)cc1 [Compound 4, (2E)-1-(5-Hydroxy-2,2,8,8-tetramethyl-3,4,9,10-tetrahydro-2H,8H-pyrano[2,3-f]chromen-6-yl)-3-p-tolyl-propenone]
Actual class [1]: 3 (>100)

COc1cc(OC)c(C(=O)/C=C/c2ccc3c(c2CCc2ccccc2)CCC(C)(C)O3)cc1CC=C(C)C [Compound 5, (2E)-1-[2,4-Dimethoxy-5-(3-methylbut-2-enyl)phenyl]-3-(2,2-dimethyl-5-phenethylchroman-6-yl)propenone]
Actual class [1]: 1 (about 10)

COc1cc(OC)c(C(=O)/C=C/c2ccc(OC)c(OC)c2)cc1CC=C(C)C [Compound 19, (2E)-3-(3,4-dimethoxyphenyl)-1-(2′,4′-dimethoxy-5′-(3-methylbut-2-enyl)phenyl)propenone]
Actual class [1]: 1 (about 10)

COc1ccc(/C=C/C(=O)c2cc3c(cc2O)OC(C)(C)C=C3)c(OC)c1 [Compound 30, (2E)-3-(2,4-Dimethoxyphenyl)-1-(7-hydroxy-2,2-dimethyl-2H-chromen-6-yl)propenone]
Actual class [1]: 3 (>100)

COc1ccc(/C=C/C(=O)c2cc(CC=C(C)C)c(OC)cc2OC)c(OC)c1 [Compound 33, (2E)-3-(2,4-dimethoxyphenyl)-1-(2′,4′-dimethoxy-5′-(3-methylbut-2-enyl)phenyl)propenone]
Actual class [1]: 3 (>100)

CC1(C)CCc2c(O)c(C(=O)/C=C/c3ccc(Oc4ccccc4)cc3)c3c(c2O1)CCC(C)(C)O3 [Compound 6, (2E)-1-(5-Hydroxy-2,2,8,8-tetramethyl-3,4,9,10-tetrahydro-2H,8H-pyrano[2,3-f]chromen-6-yl)-3-(4-phenoxypheny)propenone]
Actual class [1]: 3 (>100)

COc1ccc(C(=O)/C=C/c2ccc(C)cc2)cc1OC [Compound 16, (2E)-3-(4-methylphenyl)-1-(3′,4′-dimethoxyphenyl)propenone]
Actual class [1]: 2 (about 100)

COc1cc(OC)c(C(=O)/C=C/c2ccccc2)c(OC)c1CC=C(C)C [Compound 15, (2E)-3-phenyl-1-(2′,4′,6′-trimethoxy-3′-(3-methylbut-2-enyl)phenyl)propenone]
Actual class [1]: 3 (>100)

COc1cc(OC)c(C(=O)/C=C/c2cccc(Oc3ccccc3)c2)cc1CC=C(C)C [Compound 34, (2E)-3-(3-phenoxyphenyl)-1-(2′,4′-dimethoxy-5′-(3-methylbut-2-enyl)phenyl)propenone]
Actual class [1]: 3 (>100)

COc1cc(OC)c(C(=O)/C=C/c2ccccc2)c(O)c1CC=C(C)C [Compound 11, (2E)-3-phenyl-1-(2′-hydroxy-4′,6′-dimethoxy-3′-(3-methylbut-2-enyl)phenyl)propenone]
Actual class [1]: 2 (about 100)

COc1cc(O)c(C(=O)/C=C/c2ccc(Oc3ccccc3)cc2)cc1C(c1ccccc1)c1ccccc1 [Compound 3, (2E)-1-(5-Benzhydryl-2-hydroxy-4-methoxyphenyl)-3-(4-phenoxyphenyl)propenone]
Actual class [1]: 3 (>100)
